This note sets out measurements from US9642789B2, “Methods for generating new hair follicles, treating baldness, and hair removal” (THE TRUSTEES OF THE UNIVERSITY OF PENNSYLVANIA, priority 2005, dated 2017).

Entries after “also recorded” stand apart in the source; their conditions may differ.

The test has as its target T1, EGF receptor (Mus musculus, UniProt Q01279).
T1 construct: from tissue; host or cells: healing skin wound of live mice
The test can be described thus: EDIHN after single injection of EGF receptor inhibitor into wound. The format is in vivo, mice. The note with it: 150 μM in 10 μL, single injection 11 days after 1 cm^2 incisional wounding; K17 and AP staining. As to the method: To determine the effect of administration of EGF receptor inhibitors on DIHN, the inhibitor AG1478 (150 μM in 10 μL volume) was administered as a single injection 11 days after incisional wounding (1 cm^2) to the middle of the wound near the skin surface. […] Left panel: epidermis stained for K17, with three large hair follicles next to each other. Right panel: dermis stained for AP with large coalescing dermal papilla areas.

T1 sequence (Q01279 25-1210): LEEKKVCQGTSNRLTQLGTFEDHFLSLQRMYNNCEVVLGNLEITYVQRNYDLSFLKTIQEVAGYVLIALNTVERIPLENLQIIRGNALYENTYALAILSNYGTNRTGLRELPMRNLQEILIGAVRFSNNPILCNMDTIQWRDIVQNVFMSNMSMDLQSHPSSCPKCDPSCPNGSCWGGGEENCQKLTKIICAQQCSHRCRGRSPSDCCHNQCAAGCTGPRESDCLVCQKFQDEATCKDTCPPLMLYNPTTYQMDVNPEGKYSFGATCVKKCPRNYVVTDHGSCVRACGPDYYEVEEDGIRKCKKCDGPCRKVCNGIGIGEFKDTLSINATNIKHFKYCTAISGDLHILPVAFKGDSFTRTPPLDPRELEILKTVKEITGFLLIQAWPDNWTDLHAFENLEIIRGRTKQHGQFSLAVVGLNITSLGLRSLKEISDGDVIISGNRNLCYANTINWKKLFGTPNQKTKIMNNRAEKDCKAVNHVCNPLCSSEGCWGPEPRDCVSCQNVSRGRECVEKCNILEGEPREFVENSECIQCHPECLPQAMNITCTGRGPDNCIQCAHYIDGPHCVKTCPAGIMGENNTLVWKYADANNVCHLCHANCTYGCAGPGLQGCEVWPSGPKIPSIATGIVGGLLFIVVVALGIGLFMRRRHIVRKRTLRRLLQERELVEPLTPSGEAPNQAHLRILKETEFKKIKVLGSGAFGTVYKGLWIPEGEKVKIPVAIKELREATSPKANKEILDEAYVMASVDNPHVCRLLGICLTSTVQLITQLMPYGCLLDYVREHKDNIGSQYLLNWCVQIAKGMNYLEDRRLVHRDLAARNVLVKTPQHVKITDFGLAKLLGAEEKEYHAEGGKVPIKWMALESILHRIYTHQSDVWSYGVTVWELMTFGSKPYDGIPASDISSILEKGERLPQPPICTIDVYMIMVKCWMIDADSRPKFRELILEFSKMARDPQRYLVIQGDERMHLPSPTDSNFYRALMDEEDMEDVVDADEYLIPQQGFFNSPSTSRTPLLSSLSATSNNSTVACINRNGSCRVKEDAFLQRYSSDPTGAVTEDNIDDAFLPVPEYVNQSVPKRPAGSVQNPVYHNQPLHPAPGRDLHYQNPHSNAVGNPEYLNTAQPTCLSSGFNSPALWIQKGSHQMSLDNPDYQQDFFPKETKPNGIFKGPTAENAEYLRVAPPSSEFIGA

Regarding `COc1cc2ncnc(Nc3cccc(Cl)c3)c2cc1OC` [AG1478], the “number and size of hair follicles generated compared with control mice wounded only” value was “more and larger hair follicles; also recorded: more and larger HF”.
